The conditions of data set [1]: human.
For data set [2] the following is noted: human. This is another data set of the same source.
The conditions of data set [3]: human. The source holds these as a separate data set.
For data set [4] the following is noted: human, serum.
Data set [5] is described as follows: Highest frequency of moderate liver toxicity observed during clinical trials, expressed as a percentage. [column '% BIOL' in source]. As to conditions: human.
For data set [6] the following is noted: human. The source holds these as a separate data set.
For data set [7] the following is noted: human. The source holds these as a separate data set.
The conditions of data set [8]: human. This is another data set of the same source.
A short description of data set [9]: Highest frequency of acute liver toxicity observed during clinical trials, expressed as a percentage. [column '% AIGUE' in source]. To be noted: human.
The conditions of data set [10]: human, serum. The source holds these as a separate data set.
The conditions of data set [11]: human, serum, 4383 h.
The conditions of data set [12]: human. The source holds these as a separate data set.
The conditions of data set [13]: human. This is another data set of the same source.
For data set [14] the following is noted: human. This is another data set of the same source.
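Throughout, for Hepatotoxicity (association with vascular disease): count of indexed literature references reporting vascular liver injury in humans, e.g. peliosis hepatitis, hepatic veno-occlusive disease or Budd-Chiari syndrome.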
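Throughout, for Hepatotoxicity (benign tumour): value is a count of indexed literature references citing a benign tumour confirmed by histopathology.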
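Throughout, for Hepatotoxicity (choleostasis): human cholestatic liver injury, shown by histopathology or by peak ALT or AST elevation over alkaline phosphatase ratio below 2, value counts indexed literature reports.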
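Throughout, for Hepatotoxicity (chronic liver disease): chronic liver injury confirmed by histopathology or persistently raised serum aminotransferase activity beyond 6 months, value given as the count of indexed literature references.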
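Throughout, for Hepatotoxicity (cirrhosis): value is a count of indexed literature references reporting cirrhosis confirmed by histopathology.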
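Throughout, for Hepatotoxicity (cytolytic): human cytolytic liver injury, shown by histopathology or by a ratio above 5 of peak ALT or AST elevation to alkaline phosphatase elevation, value counts indexed references.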
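Throughout, for Hepatotoxicity (granulomatous hepatitis): value is a count of indexed literature references reporting granulomatous liver disease confirmed by histopathology.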
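Throughout, for Hepatotoxicity (malignant tumour): malignant tumour confirmed by histopathology, value gives the count of indexed literature references reporting it.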
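Throughout, for Hepatotoxicity (severe hepatitis): human clinical data: severe hepatitis, meaning potentially life-threatening liver failure or clinically observed cases, the value counts how many indexed literature references report it.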
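Throughout, for Hepatotoxicity (steatosis): steatosis confirmed by histopathology, value is the count of indexed references.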

With `Clc1cccc(C(c2ccc3[nH]cnc3c2)n2ccnc2)c1` (stereo not drawn) [LIAROZOLE], the “Hepatotoxicity (severe hepatitis)” value in data set [1] stood at 0. Further, the “Hepatotoxicity (cytolytic)” value in [2] came out at 0. Moreover, the “Hepatotoxicity (choleostasis)” value in data set [3] was determined as 0. Moreover, the “Hepatotoxicity (acute)” value is 0 in data set [4] and 0% in [9]. The “Hepatotoxicity (moderate)” value in data set [5] is recorded as 2.9%; in data set [10], 1. Also, in data set [6], the “Hepatotoxicity (malignant tumour)” value turned out to be 0. Also, the “Hepatotoxicity (association with vascular disease)” value in data set [7] is reported as 0. Moreover, in data set [8], the “Hepatotoxicity (steatosis)” value came to 0. For the same compound, in data set [11], the “Hepatotoxicity (chronic liver disease)” value is recorded as 0. Further, the “Hepatotoxicity (cirrhosis)” value in [12] came to 0. Besides, the “Hepatotoxicity (granulomatous hepatitis)” value in data set [13] was determined as 0. Also, the “Hepatotoxicity (benign tumour)” value in [14] stood at 0.
Consider `CC(C)(C)c1ccc(CCC(O)COc2ccc(C(=O)O)cc2)cc1` (stereo not drawn) [LIFIBROL], for which, in [1], the “Hepatotoxicity (severe hepatitis)” value turned out to be 0. Besides, the “Hepatotoxicity (cytolytic)” value in [2] was 0. Besides, in [3], the “Hepatotoxicity (choleostasis)” value worked out at 0. The “Hepatotoxicity (acute)” value turned out to be 0 in data set [4] and 0% in data set [9]. Moreover, the figures for the “Hepatotoxicity (moderate)” value in [5] and in data set [10] were 3.9% and 1, respectively. Further, the “Hepatotoxicity (malignant tumour)” value in data set [6] was determined as 0. Besides, the “Hepatotoxicity (association with vascular disease)” value in data set [7] is listed as 0. The “Hepatotoxicity (steatosis)” value in data set [8] is 0. Moreover, in [11], the “Hepatotoxicity (chronic liver disease)” value is recorded as 0. The “Hepatotoxicity (cirrhosis)” value in data set [12] amounted to 0. Besides, in data set [13], the “Hepatotoxicity (granulomatous hepatitis)” value is 0. Moreover, the “Hepatotoxicity (benign tumour)” value in data set [14] is on record as 0.
For `CCC[C@@H]1C[C@@H](C(=O)N[C@@H]([C@H]2O[C@H](SC)[C@H](O)[C@@H](O)[C@H]2O)[C@@H](C)O)N(C)C1` [LINCOMYCIN], the “Hepatotoxicity (severe hepatitis)” value in data set [1] is 0. Further, in [2], the “Hepatotoxicity (cytolytic)” value came out at 0. The “Hepatotoxicity (choleostasis)” value in data set [3] is listed as 0. In addition, the “Hepatotoxicity (acute)” value in [4] came to 0; in data set [9], 0%. For the same compound, the figures for the “Hepatotoxicity (moderate)” value in data set [5] and in data set [10] were 0% and 2, respectively. In addition, in [6], the “Hepatotoxicity (malignant tumour)” value was 0. Further, the “Hepatotoxicity (association with vascular disease)” value in data set [7] worked out at 0. Also, in data set [8], the “Hepatotoxicity (steatosis)” value is 0. Also, the “Hepatotoxicity (chronic liver disease)” value in [11] is on record as 0. In data set [12], the “Hepatotoxicity (cirrhosis)” value is listed as 0. Also, the “Hepatotoxicity (granulomatous hepatitis)” value in data set [13] is reported as 0. The “Hepatotoxicity (benign tumour)” value in data set [14] was 0.
For `O=C(O)c1nn(Cc2ccc(Cl)cc2Cl)c2ccccc12` [LONIDAMINE], in [1], the “Hepatotoxicity (severe hepatitis)” value worked out at 0. In addition, the “Hepatotoxicity (cytolytic)” value in [2] is given as 0. Moreover, the “Hepatotoxicity (choleostasis)” value in data set [3] is 0. Also, the “Hepatotoxicity (acute)” value worked out at 0 in data set [4] and 0% in data set [9]. In addition, the “Hepatotoxicity (moderate)” value in data set [5] is given as 6.4%; in [10] it was 4. In data set [6], the “Hepatotoxicity (malignant tumour)” value was 0. Also, the “Hepatotoxicity (association with vascular disease)” value in [7] is recorded as 0. The “Hepatotoxicity (steatosis)” value in data set [8] is listed as 0. In data set [11], the “Hepatotoxicity (chronic liver disease)” value is recorded as 0. Moreover, the “Hepatotoxicity (cirrhosis)” value in data set [12] is 0. Moreover, in [13], the “Hepatotoxicity (granulomatous hepatitis)” value turned out to be 0. In addition, the “Hepatotoxicity (benign tumour)” value in [14] came to 0.
As to `Cc1cccc(C)c1OCC(=O)N[C@@H](Cc1ccccc1)[C@@H](O)C[C@H](Cc1ccccc1)NC(=O)[C@H](C(C)C)N1CCCNC1=O` [LOPINAVIR], the “Hepatotoxicity (severe hepatitis)” value in data set [1] turned out to be 0. Further, the “Hepatotoxicity (cytolytic)” value in data set [2] was 2. For the same compound, in data set [3], the “Hepatotoxicity (choleostasis)” value is on record as 0. For the same compound, the figures for the “Hepatotoxicity (acute)” value in data set [4] and in data set [9] were 2 and 8%, respectively. For the same compound, the results for the “Hepatotoxicity (moderate)” value in data set [5] and in data set [10] were 0% and 1, respectively. Also, in [6], the “Hepatotoxicity (malignant tumour)” value stood at 0. Besides, the “Hepatotoxicity (association with vascular disease)” value in [7] was 0. In addition, the “Hepatotoxicity (steatosis)” value in data set [8] amounted to 0. For the same compound, the “Hepatotoxicity (chronic liver disease)” value in data set [11] is on record as 0. The “Hepatotoxicity (cirrhosis)” value in data set [12] was determined as 0. Besides, the “Hepatotoxicity (granulomatous hepatitis)” value in [13] is reported as 0. Moreover, the “Hepatotoxicity (benign tumour)” value in data set [14] was 0.
As for `CC(C(=O)O)c1ccc(CC2CCCC2=O)cc1` (stereo not drawn) [LOXOPROFEN], in data set [1], the “Hepatotoxicity (severe hepatitis)” value turned out to be 1. Also, the “Hepatotoxicity (cytolytic)” value in [2] amounted to 0. Further, the “Hepatotoxicity (choleostasis)” value in data set [3] is recorded as 0. Also, the “Hepatotoxicity (acute)” value in [4] turned out to be 1; in data set [9], 0%. Besides, the “Hepatotoxicity (moderate)” value in data set [5] was found to be 0%; in data set [10], 0. Further, the “Hepatotoxicity (malignant tumour)” value in [6] worked out at 0. Also, in [7], the “Hepatotoxicity (association with vascular disease)” value was found to be 0. In data set [8], the “Hepatotoxicity (steatosis)” value came out at 0. The “Hepatotoxicity (chronic liver disease)” value in [11] came to 0. The “Hepatotoxicity (cirrhosis)” value in data set [12] was determined as 0. The “Hepatotoxicity (granulomatous hepatitis)” value in [13] is given as 0. Further, the “Hepatotoxicity (benign tumour)” value in [14] worked out at 0.
For `C#C[C@]1(O)CC[C@H]2[C@@H]3CCC4=CCCC[C@@H]4[C@H]3CC[C@@]21C` [LYNESTRENOL], the “Hepatotoxicity (severe hepatitis)” value in data set [1] is 0. For the same compound, the “Hepatotoxicity (cytolytic)” value in data set [2] is on record as 0. For the same compound, in data set [3], the “Hepatotoxicity (choleostasis)” value came to 3. The “Hepatotoxicity (acute)” value in data set [4] amounted to 3; in data set [9], 0%. In addition, the “Hepatotoxicity (moderate)” value in data set [5] amounted to 0%; in [10] it was 0. In addition, the “Hepatotoxicity (malignant tumour)” value in data set [6] is reported as 0. The “Hepatotoxicity (association with vascular disease)” value in data set [7] is given as 0. The “Hepatotoxicity (steatosis)” value in data set [8] was determined as 0. Moreover, the “Hepatotoxicity (chronic liver disease)” value in [11] came to 0. The “Hepatotoxicity (cirrhosis)” value in [12] was 0. In addition, the “Hepatotoxicity (granulomatous hepatitis)” value in data set [13] was 0. Moreover, the “Hepatotoxicity (benign tumour)” value in data set [14] was 0.
Take `CC(NN)c1ccccc1` (stereo not drawn) [MEBANAZINE]: the “Hepatotoxicity (severe hepatitis)” value in data set [1] was 0. In addition, the “Hepatotoxicity (cytolytic)” value in [2] was 0. In addition, the “Hepatotoxicity (choleostasis)” value in data set [3] worked out at 0. In addition, the “Hepatotoxicity (acute)” value in data set [4] stood at 0; in data set [9], 0%. Besides, the “Hepatotoxicity (moderate)” value turned out to be 9% in data set [5] and 1 in data set [10]. Further, the “Hepatotoxicity (malignant tumour)” value in data set [6] is 0. Moreover, the “Hepatotoxicity (association with vascular disease)” value in [7] is on record as 0. Moreover, the “Hepatotoxicity (steatosis)” value in data set [8] amounted to 0. The “Hepatotoxicity (chronic liver disease)” value in [11] came out at 0. The “Hepatotoxicity (cirrhosis)” value in data set [12] amounted to 0. In addition, the “Hepatotoxicity (granulomatous hepatitis)” value in data set [13] stood at 0. In [14], the “Hepatotoxicity (benign tumour)” value is 0.
For `CCC(C)C(C)(COC(N)=O)COC(N)=O` (stereo not drawn) [MEBUTAMATE], the “Hepatotoxicity (severe hepatitis)” value in data set [1] was found to be 0. Further, in [2], the “Hepatotoxicity (cytolytic)” value is listed as 0. Besides, the “Hepatotoxicity (choleostasis)” value in data set [3] was 1. The entries for the “Hepatotoxicity (acute)” value in [4] and in data set [9] were 1 and 0%, respectively. The “Hepatotoxicity (moderate)” value in [5] is recorded as 0%; in [10], 0. For the same compound, in data set [6], the “Hepatotoxicity (malignant tumour)” value came out at 0. The “Hepatotoxicity (association with vascular disease)” value in data set [7] amounted to 0. In [8], the “Hepatotoxicity (steatosis)” value worked out at 0. In addition, the “Hepatotoxicity (chronic liver disease)” value in data set [11] stood at 0. Further, the “Hepatotoxicity (cirrhosis)” value in data set [12] is 0. Moreover, in data set [13], the “Hepatotoxicity (granulomatous hepatitis)” value is given as 0. The “Hepatotoxicity (benign tumour)” value in data set [14] turned out to be 0.
Take `CO[C@H]1Cc2c(O)cc(O)cc2O[C@@H]1c1ccc(O)c(O)c1` [MECIADANOL]: the “Hepatotoxicity (severe hepatitis)” value in data set [1] worked out at 0. Further, in data set [2], the “Hepatotoxicity (cytolytic)” value is given as 0. Also, the “Hepatotoxicity (choleostasis)” value in data set [3] is 0. Moreover, the “Hepatotoxicity (acute)” value in data set [4] is recorded as 0; in data set [9] it was 0%. Further, the figures for the “Hepatotoxicity (moderate)” value in [5] and in data set [10] were 34.8% and 1, respectively. In [6], the “Hepatotoxicity (malignant tumour)” value stood at 0. Further, the “Hepatotoxicity (association with vascular disease)” value in [7] was found to be 0. In addition, the “Hepatotoxicity (steatosis)” value in [8] stood at 0. Also, the “Hepatotoxicity (chronic liver disease)” value in [11] is on record as 0. Moreover, the “Hepatotoxicity (cirrhosis)” value in [12] came out at 0. Further, the “Hepatotoxicity (granulomatous hepatitis)” value in [13] came out at 0. Further, the “Hepatotoxicity (benign tumour)” value in data set [14] is 0.
`Cc1ccc(Cl)c(Nc2ccccc2C(=O)O)c1Cl` [MECLOFENAMIC ACID]: the “Hepatotoxicity (severe hepatitis)” value in [1] amounted to 0. The “Hepatotoxicity (cytolytic)” value in [2] was 0. Further, the “Hepatotoxicity (choleostasis)” value in [3] is on record as 0. Also, the entries for the “Hepatotoxicity (acute)” value in data set [4] and in data set [9] were 0 and 0%, respectively. Also, the “Hepatotoxicity (moderate)” value came out at 0% in data set [5] and 2 in data set [10]. In addition, the “Hepatotoxicity (malignant tumour)” value in [6] was found to be 0. Moreover, the “Hepatotoxicity (association with vascular disease)” value in data set [7] worked out at 0. Moreover, the “Hepatotoxicity (steatosis)” value in data set [8] was 0. The “Hepatotoxicity (chronic liver disease)” value in data set [11] was 0. In addition, the “Hepatotoxicity (cirrhosis)” value in [12] was 0. For the same compound, in [13], the “Hepatotoxicity (granulomatous hepatitis)” value amounted to 0. Besides, in data set [14], the “Hepatotoxicity (benign tumour)” value turned out to be 0.
`Nc1nc(N)nc(Nc2ccc([As]3SCC(CO)S3)cc2)n1` (stereo not drawn) [MELARSOPROL]: the “Hepatotoxicity (severe hepatitis)” value in data set [1] is given as 0. Moreover, the “Hepatotoxicity (cytolytic)” value in data set [2] stood at 0. Further, in data set [3], the “Hepatotoxicity (choleostasis)” value stood at 0. In addition, the “Hepatotoxicity (acute)” value was determined as 0 in [4] and 0% in data set [9]. Further, the “Hepatotoxicity (moderate)” value was 1% in [5] and 3 in [10]. The “Hepatotoxicity (malignant tumour)” value in data set [6] was determined as 0. Moreover, the “Hepatotoxicity (association with vascular disease)” value in data set [7] came to 0. The “Hepatotoxicity (steatosis)” value in [8] was determined as 0. Moreover, the “Hepatotoxicity (chronic liver disease)” value in data set [11] amounted to 0. In addition, in data set [12], the “Hepatotoxicity (cirrhosis)” value amounted to 0. In addition, the “Hepatotoxicity (granulomatous hepatitis)” value in [13] came to 0. Further, the “Hepatotoxicity (benign tumour)” value in data set [14] was determined as 0.

The values above are taken from ChEMBL document CHEMBL3137667, “[Drug-induced liver injury; fourteenth updated edition of the bibliographic database of liver injuries and related drugs]” (Gastroenterol Clin Biol, 2004).
